Laboratory results reported in patent publication US10583094B2.

Experiments:
MCA stroke (MCE model) [1] = tested on: MCA stroke (MCE model); parameters: species or system Wistar rats; conditions: rat, in vivo, sc
MCA stroke (MCE model) [2] = assay: MCA stroke (MCE model): tissue water content by wet/dry weight; type: in vivo, Wistar rats; conditions: 8 hr after stroke
Method: For large MCA strokes with malignant cerebral edema (MCE), the inventors first embolized microparticles (Nakabayashi et al., 1997) [polyvinyl alcohol (PVA) particles; […] […] TTC(−) portions of the involved hemisphere. […] Of these, 15 rats were used for validation of drug action (mortality, tissue water and glucose) and 5 rats were used for determination of drug distribution. […] For stroke size, stained sections were photographed and images were analyzed (Scion Image) to determine the percent of the involved hemisphere occupied by TTC(−) tissue; no correction for edema was performed. For some determinations of water or SUR1 protein content, individual coronal sections were divided under magnification into 3 parts: (i) the non-involved, control hemisphere; (ii) the TTC(+) portion of the involved hemisphere; (iii) the TTC(−) portion of the involved hemisphere. For each animal, pooled tissues from the 3 parts were then processed for tissue water measurements or for Western blots. Tissue water was quantified by the wet/dry weight method (Hua et al., 2003). Tissue samples were blotted to remove small quantities of adsorbed fluid. Samples were weighed with a precision scale to obtain the wet weight (WW), dried to constant weight at 80° C. and low vacuum, and then reweighed to obtain the dry weight (WD). The percent H2O of each tissue sample was then calculated as (WW-WD)×100/WW.

SUR1 = SUR1 knockdown by antisense ODN infusion at gelfoam implantation site; R1 astrocyte response to Na azide; type: cell-based, rat; conditions: for Depolarization of R1 astrocytes on Na azide: Na azide 1 mM
Description: To further test involvement of SUR1, SUR1 expression was “knocked down” in situ by infusing oligodeoxynucleotide (ODN) for 14 days using a mini-osmotic pump, with the delivery catheter placed in the gelfoam implantation site in the brain, in the otherwise standard model we use for R1 astrocyte isolation ([…] et al., 1980, […] et al., 2002, […] et al., 2000, […] et al., 1999). Knockdown of SUR1 expression (SUR1KD) was achieved using antisense (AS; [NT] ID NO: 9)) (Yokoshiki et al., 1999) oligodeoxynucleotide (ODN), with scrambled ([…] ID NO: 10)) ODN being used as control. […] In R1 astrocytes from SUR1KD, however, Na azide had little effect on resting membrane potential (FIG. 24D).

rodent model of stroke = assay: Rodent model of stroke, mortality and hemisphere water (Example 9); type: in vivo, rat; conditions: n=5 in each group
thromboembolic stroke = assay: Thromboembolic stroke with rtPA reperfusion at 6 hr: hemorrhagic conversion; type: in vivo, spontaneously hypertensive rats; conditions: rtPA 10 mg/kg i.v. at 6 hr, 24 hr after stroke
Method: A rodent model of thromboembolic stroke was used (Aoki et al., 2002; Kijkhuizen et al., 2001; Kano et al., 2000; Sumii et al., 2002; Tejima et al., 2001). […] Sumii et al., 2002). Rectal temperature was maintained at 37° C. with a thermostat-controlled heating pad. The right femoral artery was cannulated, and physiological parameters, including temperature, mean blood pressure, pH, pO2, and pCO2, glucose were monitored. Temporary focal ischemia was obtained with an embolic model that used allogeneic clots to occlude the MCA. Allogeneic, thrombin-induced, fibrin-rich blood clots were prepared using methods adapted from […] et al. (Asahi et al., 2000; […] et al., 2003; Sumii et al., 2002). Seven clots, 1.5 mm long, were used for embolizing. Using a ventral cervical incision, the internal and external carotid arteries were exposed. The external carotid artery and pterygopalatine arteries were ligated. Removable surgical clips were applied to the common and internal carotid arteries. The modified PE-50 catheter containing the clots was inserted retrograde into the external carotid artery and advanced up to the internal carotid artery. The temporary clips were removed, and the clots were injected. Incisions were closed. […] Physiological parameters, including temperature, mean blood pressure (tail cuff plethysmography), blood gases and glucose were monitored. […]

MMP-9 & MMP-2 = assay: Zymography of gelatinase activity of recombinant enzyme and stroke tissue; type: biochemical; conditions: glibenclamide 10 μM; MMP inhibitor II 300 nM
Method: Activation of MMP-9 & MMP-2 in stroke tissue was compared to controls.
Next, the supernatants underwent a gelatinase purification process with gelatin-Sepharose 4B (Pharmacia), and Zymography was performed on the purified supernatants in sodium dodecyl sulfate gels containing gelatin (Rosenberg, 1994). Dried gels were scanned with a transparency scanner, and images were analyzed by densitometry. The relative lysis of an individual sample was expressed as the integrated density value of its band and divided by the protein content of the sample.

[3] = rat, in vivo
[4] = tested on: freshly isolated R1 astrocytes; assay: Na azide-induced blebbing and cell death of freshly isolated R1 astrocytes

In the case of “BODIPY-FL-glyburide [BODIPY-glibenclamide]”, the “Mortality during 7 days after MCA stroke” value (MCA stroke (MCE model) [1]) is reported as 40% and the “Water in TTC(+) tissue of involved hemisphere” value (MCA stroke (MCE model) [2]) is reported as 82.7±1.4%.

For “5′-GGCCGAGTGGTTCTCGGT-3′ (chemistry not given here) [AS-ODN, antisense oligodeoxynucleotide used to knock down SUR1 expression]”, the “Depolarization of R1 astrocytes on Na azide” value (SUR1) was “little or no depolarization”, the “Depolarization of R1 astrocytes on Na azide” value (SUR1; listed as SUR1KD) was 8.7±1.7 mV and the “SUR1 expression in gliotic capsule (immunoblot)” value (SUR1; ODN infused for 14 days, compared with scrambled ODN) was “significant reduction in SUR1 expression”. For the same molecule, the “Membrane blebbing after exposure to Na azide” value (SUR1; R1 astrocytes) was “not observed”.

For `COc1ccc(Cl)cc1C(=O)NCCc1ccc(S(=O)(=O)NC(=O)NC2CCCCC2)cc1` [glibenclamide], the “Excess water in stroke hemisphere compared with saline-treated rats” value (rodent model of stroke) was “only half as much excess water”, the “Rise of water in TTC(+) tissue over uninvolved hemisphere” value (MCA stroke (MCE model) [2]) was 2.5% and the “Rise of water in involved hemisphere over control hemisphere” value (MCA stroke (MCE model) [2]) was 2.0%. The “Animals with hemorrhagic conversion” value (thromboembolic stroke; co-treated with glibenclamide 1.5 μg/kg i.v. plus pump 300 μM at ½ μl/hr) was 1/5, the “Animals showing no evidence of hemorrhage” value (thromboembolic stroke; co-treated with glibenclamide) was 4/5 and the “Gelatinase activity in presence of compound” value (MMP-9 & MMP-2) was “the same as that assayed without”. The “Serum glucose at 8 hr” value [3] was 93 ± 3 mg/dL and the “Necrotic death (propidium iodide) induced by Na azide” value ([4]; Na azide 1 mM, glibenclamide 1 μM) was “largely prevented”.

For `CC1=NS(=O)(=O)c2cc(Cl)ccc2N1` [diazoxide], the “Cell morphology (blebbing) on exposure to channel opener” value ([4]; phase contrast, observed over 30 min) was “developed progressive blebbing consistent with cytotoxic edema”.
